# Data reported in patent publication US8492331B2, “Methods for increasing absorption of peptides, peptidomimetics and other gastrointestinal transport protein substrates” (Nestec S.A., priority 2008, dated 2013).
# Legend:
# [1] = in vivo; settings: both, Labrador Retriever, dog, serum, oral, 15 mg/kg BW
# Description: (§1) Methology: The study used n=40 Labrador Retriever dogs (BW range: 21-40 kg) to test the oral ingestion of melatonin compared to no-melatonin placebo control on the absorption of cephalexin, an antibiotic that also serves as a marker substrate for small peptides. The dogs were balanced for gender and the ages ranged from 1.5 to 9 years old. The study evaluated cephalexin absorption by orally administering a single 15 mg/kg BW dose of cephalexin to dogs at 2:00 pm, and subsequently determining the pharmakinetics of cephalexin appearance in serum. Dogs were randomized into 5 different treatment groups and received a single oral dose of melatonin (0.01, 0.1, 1, or 3 mg/kg BW) in a gelatin capsule or placebo simultaneously as the cephalexin dose. The oral dose was immediately followed by an oral administration of 60 mL of water by a 60 mL irrigation syringe. The melatonin dose diluent and placebo pill were the inert carrier, avicel. Cephalexin pharmakinetics were analyzed at 30 and 60 min after dosing and 1.5, 2, 2.5, 3, 4, and 6 hours after oral dosing of cephalexin. Cephalexin concentration was determined by high pressure liquid chromatograph.
# [2] = in vivo; settings: both, dog, serum, oral, 15 mg/kg BW
# Description: (§2) Methodology: The study was designed to test the feeding of melatonin on the absorption of cephalexin. Dogs (n=24, Body Weight (BW) range: 7-14 kg, age range: 1.5 to 14 yrs) were divided into a test group and a control group. The respective groups were balanced for gender.
# (§3) The test group received a single dose of melatonin (1 mg/kg BW) at 12:00 pm, followed by a single dose of cephalexin (15 mg/kg BW) between 1:00 and 2:00 pm. Dosing with melatonin and cephalexin were both by oral administration to the dogs. The study evaluated cephalexin absorption by determining the pharmacokinetics of cephalexin appearance in serum subsequent to the melatonin administration. […] Samples for pharmacokinetic analysis were taken at 15, 30, 45, and 60 min, as well as 1.5, 2, 2.5, 3, 3.5, 4, 6, and 8 hours after oral dosing of cephalexin. Cephalexin concentration was determined by high pressure liquid chromatograph. Serum melatonin content was analyzed before and after the oral administration time, e.g., at −5, −3, −1, −0.5 hour before, 0 (dosing time), and at 0.5, 1, 2, 3, 4, and 6 hours after oral dosing of melatonin. Melatonin was quantified by radioimmunoassay procedures.
# [3] = Day/night activity, Actiwatch monitor, 24 h before and 48 h after oral melatonin (Example 2); format: in vivo, Labrador Retriever dogs; settings: for Activity (Actiwatch): start of day 2
# Description: Dogs were fitted with an Actiwatch monitor 24 hours before oral ingestion of one of the melatonin doses, specifically at 2 PM on day 1. Following the oral administration of melatonin, the activity monitoring continued for another 48 hours, at which time the monitors were removed and the data collected for analysis. The dogs were exposed to 11.5 h light:12.5 h dark cycle, in which kennel lighting and natural light was combined over the 11.5 hour period. In the morning the light cycle began with exposure to kennel lighting at 6 AM and darkness onset occurred at 5:30 PM with sunset. For data analysis, activity was separated into three periods of time, afternoon light phase (2 PM to 5:30 PM, 3.5 h duration), dark phase (5:30 PM to 6 AM, 12.5 h duration), and morning light phase (6 AM to 2 PM, 8 h duration). For data analysis purposes, a 24 hour period is from 2:00 PM to 1:59 PM.
# [4] = Serum melatonin pharmacokinetics after oral melatonin, radioimmunoassay (Example 1); format: in vivo, Dogs
# Text: Melatonin was quantified by radioimmunoassay procedures.
# [5] = melatonin 1 mg/kg BW oral before cephalexin 15 mg/kg BW oral
# Description: as §2, §3
# [6] = both, Labrador Retriever, dog, in vivo, po, 3 mg/kg
# Description: as §1
# [7] = Titration of oral melatonin dose on cephalexin absorption: serum pharmacokinetics of cephalexin (Example 2)
# Description: as §1
structure (smiles),measurement,setting,value
"CC1=C(C(=O)O)N2C(=O)[C@@H](NC(=O)[C@H](N)c3ccccc3)[C@H]2SC1 [Cephalexin, cephalexin]",concentration at 0.5 h,[1],2010 ng/mL
same,concentration at 1 h,[1],6280 ng/mL
same,concentration at 1.5 h,[1],9920 ng/mL
same,concentration at 2 h,[1],11800 ng/mL
same,concentration at 2.5 h,[1],12400 ng/mL
same,concentration at 3 h,[1],12200 ng/mL
same,concentration at 4 h,[1],11300 ng/mL
same,concentration at 6 h,[1],7570 ng/mL
same,concentration at 0.25 h,[2],790 ng/mL
same,concentration at 0.5 h,[2],4170 ng/mL
same,concentration at 0.75 h,[2],8190 ng/mL
same,concentration at 1 h,[2],10900 ng/mL
same,concentration at 1.5 h,[2],13900 ng/mL
same,concentration at 2 h,[2],13700 ng/mL
same,concentration at 2.5 h,[2],14300 ng/mL
same,concentration at 3 h,[2],13000 ng/mL
same,concentration at 3.5 h,[2],11800 ng/mL
same,concentration at 4 h,[2],9900 ng/mL
same,concentration at 6 h,[2],5910 ng/mL
same,concentration at 8 h,[2],3730 ng/mL
"COc1ccc2[nH]cc(CCNC(C)=O)c2c1 [Melatonin, 5-methoxy-N-acetyltryptamine]",Activity (Actiwatch),"[3]; melatonin 0.01 mg/kg BW oral at 2 PM, Afternoon Light Phase (2 PM-5:30 PM), Day 1 (before dosing)",30064
same,Activity (Actiwatch),"[3]; melatonin 0.01 mg/kg BW oral at 2 PM, Afternoon Light Phase (2 PM-5:30 PM), Day 2",44935
same,Activity (Actiwatch),"[3]; melatonin 0.01 mg/kg BW oral at 2 PM, Afternoon Light Phase (2 PM-5:30 PM), Day 3",39386
same,Activity (Actiwatch),"[3]; melatonin 0.01 mg/kg BW oral at 2 PM, Dark Phase (5:30 PM-6 AM), Day 1 (before dosing)",32346
same,Activity (Actiwatch),"[3]; melatonin 0.01 mg/kg BW oral at 2 PM, Dark Phase (5:30 PM-6 AM), Day 2",30930
same,Activity (Actiwatch),"[3]; melatonin 0.01 mg/kg BW oral at 2 PM, Dark Phase (5:30 PM-6 AM), Day 3",34140
same,Activity (Actiwatch),"[3]; melatonin 0.01 mg/kg BW oral at 2 PM, Morning Light Phase (6 AM-2 PM), Day 1 (before dosing)",140160
same,Activity (Actiwatch),"[3]; melatonin 0.01 mg/kg BW oral at 2 PM, Morning Light Phase (6 AM-2 PM), Day 2",128216
same,Activity (Actiwatch),"[3]; melatonin 0.01 mg/kg BW oral at 2 PM, Morning Light Phase (6 AM-2 PM), Day 3",120706
same,Activity (Actiwatch),"[3]; melatonin 0.1 mg/kg BW oral at 2 PM, Afternoon Light Phase (2 PM-5:30 PM), Day 1 (before dosing)",28140
same,Activity (Actiwatch),"[3]; melatonin 0.1 mg/kg BW oral at 2 PM, Afternoon Light Phase (2 PM-5:30 PM), Day 2",30124
same,Activity (Actiwatch),"[3]; melatonin 0.1 mg/kg BW oral at 2 PM, Afternoon Light Phase (2 PM-5:30 PM), Day 3",21497
same,Activity (Actiwatch),"[3]; melatonin 0.1 mg/kg BW oral at 2 PM, Dark Phase (5:30 PM-6 AM), Day 1 (before dosing)",38464
same,Activity (Actiwatch),"[3]; melatonin 0.1 mg/kg BW oral at 2 PM, Dark Phase (5:30 PM-6 AM), Day 2",30753
same,Activity (Actiwatch),"[3]; melatonin 0.1 mg/kg BW oral at 2 PM, Dark Phase (5:30 PM-6 AM), Day 3",32849
same,Activity (Actiwatch),"[3]; melatonin 0.1 mg/kg BW oral at 2 PM, Morning Light Phase (6 AM-2 PM), Day 1 (before dosing)",133337
same,Activity (Actiwatch),"[3]; melatonin 0.1 mg/kg BW oral at 2 PM, Morning Light Phase (6 AM-2 PM), Day 2",130972
same,Activity (Actiwatch),"[3]; melatonin 0.1 mg/kg BW oral at 2 PM, Morning Light Phase (6 AM-2 PM), Day 3",99800
same,Activity (Actiwatch),"[3]; melatonin 1 mg/kg BW oral at 2 PM, Afternoon Light Phase (2 PM-5:30 PM), Day 1 (before dosing)",34376
same,Activity (Actiwatch),"[3]; melatonin 1 mg/kg BW oral at 2 PM, Afternoon Light Phase (2 PM-5:30 PM), Day 2",44889
same,Activity (Actiwatch),"[3]; melatonin 1 mg/kg BW oral at 2 PM, Afternoon Light Phase (2 PM-5:30 PM), Day 3",31184
same,Activity (Actiwatch),"[3]; melatonin 1 mg/kg BW oral at 2 PM, Dark Phase (5:30 PM-6 AM), Day 1 (before dosing)",47178
same,Activity (Actiwatch),"[3]; melatonin 1 mg/kg BW oral at 2 PM, Dark Phase (5:30 PM-6 AM), Day 2",26733
same,Activity (Actiwatch),"[3]; melatonin 1 mg/kg BW oral at 2 PM, Dark Phase (5:30 PM-6 AM), Day 3",49958
same,Activity (Actiwatch),"[3]; melatonin 1 mg/kg BW oral at 2 PM, Morning Light Phase (6 AM-2 PM), Day 1 (before dosing)",155482
same,Activity (Actiwatch),"[3]; melatonin 1 mg/kg BW oral at 2 PM, Morning Light Phase (6 AM-2 PM), Day 2",151573
same,Activity (Actiwatch),"[3]; melatonin 1 mg/kg BW oral at 2 PM, Morning Light Phase (6 AM-2 PM), Day 3",126103
same,Activity (Actiwatch),"[3]; melatonin 3 mg/kg BW oral at 2 PM, Afternoon Light Phase (2 PM-5:30 PM), Day 1 (before dosing)",30548
same,Activity (Actiwatch),"[3]; melatonin 3 mg/kg BW oral at 2 PM, Afternoon Light Phase (2 PM-5:30 PM), Day 2",45730
same,Activity (Actiwatch),"[3]; melatonin 3 mg/kg BW oral at 2 PM, Afternoon Light Phase (2 PM-5:30 PM), Day 3",35034
same,Activity (Actiwatch),"[3]; melatonin 3 mg/kg BW oral at 2 PM, Dark Phase (5:30 PM-6 AM), Day 1 (before dosing)",33517
same,Activity (Actiwatch),"[3]; melatonin 3 mg/kg BW oral at 2 PM, Dark Phase (5:30 PM-6 AM), Day 2",35926
same,Activity (Actiwatch),"[3]; melatonin 3 mg/kg BW oral at 2 PM, Dark Phase (5:30 PM-6 AM), Day 3",33492
same,Activity (Actiwatch),"[3]; melatonin 3 mg/kg BW oral at 2 PM, Morning Light Phase (6 AM-2 PM), Day 1 (before dosing)",139265
same,Activity (Actiwatch),"[3]; melatonin 3 mg/kg BW oral at 2 PM, Morning Light Phase (6 AM-2 PM), Day 2",153805
same,Activity (Actiwatch),"[3]; melatonin 3 mg/kg BW oral at 2 PM, Morning Light Phase (6 AM-2 PM), Day 3",117374
same,"Activity during the dark phase immediately following oral ingestion, compared to placebo","[3]; melatonin 0.01, 0.1, and 1 mg/kg groups",decrease compared to the placebo groups
same,"Influence on activity, late afternoon light phase (2 pm to 5:30 pm)","[3]; oral melatonin 0.01, 0.1, 1, and 3 mg/kg BW",did not demonstrate any influence of oral melatonin on activity
same,Impact on activity in the daylight hours,[3]; oral melatonin 0.01-3 mg/kg BW,does not seem to impact activity of dogs in the daylight hours
same,Nighttime activity,[3]; oral melatonin administered in the afternoon,nighttime activity is slightly reduced
same,concentration at 1 h,"[4]; dog, serum, melatonin 1 mg/kg BW oral at 12:00 pm, sample 1:00 pm",9.55 ng/mL
same,concentration at 1.5 h,"[4]; dog, serum, melatonin 1 mg/kg BW oral at 12:00 pm, sample 1:30 pm",8.97 ng/mL
same,concentration at 2 h,"[4]; dog, serum, melatonin 1 mg/kg BW oral at 12:00 pm, sample 2:00 pm",4.79 ng/mL
same,concentration at 3 h,"[4]; dog, serum, melatonin 1 mg/kg BW oral at 12:00 pm, sample 3:00 pm",1.46 ng/mL
same,concentration at 4 h,"[4]; dog, serum, melatonin 1 mg/kg BW oral at 12:00 pm, sample 4:00 pm",0.747 ng/mL
same,concentration at 5 h,"[4]; dog, serum, melatonin 1 mg/kg BW oral at 12:00 pm, sample 5:00 pm",0.273 ng/mL
same,concentration at 7 h,"[4]; dog, serum, melatonin 1 mg/kg BW oral at 12:00 pm, sample 7:00 pm",0.0885 ng/mL
same,concentration at -3 h,"[4]; dog, serum, melatonin 1 mg/kg BW oral at 12:00 pm, sample 9:00 am (before dosing)",0.0039 ng/mL
same,concentration at -1 h,"[4]; dog, serum, melatonin 1 mg/kg BW oral at 12:00 pm, sample 11:00 am (before dosing)",0.0005 ng/mL
same,concentration at 0 h,"[4]; dog, serum, melatonin 1 mg/kg BW oral at 12:00 pm, sample 12:00 pm (dosing time)",0.0184 ng/mL
same,concentration at 0.5 h,"[4]; dog, serum, melatonin 1 mg/kg BW oral at 12:00 pm, sample 12:30 pm",10.7 ng/mL
same,Melatonin appearance in serum,"[4]; dogs that ingested melatonin 1 mg/kg BW, versus baseline levels of control dogs",increased significantly for up to 6 hours after ingestion
same,Effect of oral melatonin on absorption of cephalexin,[5],increased the absorption of cephalexin
same,Cephalexin AUC greater than placebo group,[6],45-34
same,Amount of cephalexin appearing in the blood compared to the placebo group,[7]; melatonin 0.01 mg/kg BW oral,slightly decreased
same,Effect on absorption of cephalexin compared to placebo dogs,"[7]; melatonin 0.1, 1, and 3 mg/kg BW oral",an increase in the absorption of cephalexin
